Results from patent publication US6649639B2, “Antipicornaviral compounds, compositions containing them, and methods for their use” (priority 1997, dated 2003).
pEC50, pKi: −log10 of the molar value.

Columns and labels:
[1] = target: T1, Recombinant Rhinovirus 3C protease serotype 14 (Human rhinovirus 14, UniProt P03303); test: Inhibition of Rhinovirus Protease (FRET assay), serotype 14; type: biochemical, human rhinovirus (HRV) serotype 14; settings: for kobs/I: RVP serotype-14, enzyme start progress curves
T1 construct: Recombinant Rhinovirus 3C proteases from serotypes 14, 16, and 2; made in house
T1 sequence (P03303 1538-1719): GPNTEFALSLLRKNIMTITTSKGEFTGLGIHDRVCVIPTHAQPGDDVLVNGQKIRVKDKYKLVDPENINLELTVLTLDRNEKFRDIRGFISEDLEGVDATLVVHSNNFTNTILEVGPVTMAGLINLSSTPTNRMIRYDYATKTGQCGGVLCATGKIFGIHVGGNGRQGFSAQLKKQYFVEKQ

[2] = target: Recombinant Rhinovirus 3C protease serotype 16 (Human rhinovirus 16, UniProt Q82122); settings: RVP serotype 16; enzyme start progress curves
Recombinant Rhinovirus 3C protease serotype 16, sequence (Q82122 1511-1693): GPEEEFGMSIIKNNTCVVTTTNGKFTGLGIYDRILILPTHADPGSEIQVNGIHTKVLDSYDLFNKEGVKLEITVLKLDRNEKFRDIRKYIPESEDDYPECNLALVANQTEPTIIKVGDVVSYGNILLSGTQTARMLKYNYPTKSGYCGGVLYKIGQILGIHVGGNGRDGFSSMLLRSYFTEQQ
Description: (§1) Stock solutions (50 mM, in DMSO) of various compounds were prepared; dilutions were in the same solvent. […] Assays contained 2% DMSO, 50 mM tris pH 7.6, 1 mM EDTA, a compound at the indicated concentrations, approximately 1 μM substrate, and 50-100 nM protease. […] The kobs/I values were obtained from reactions initiated by addition of enzyme rather than substrate. RVP activity is measured in the fluorescence resonance energy transfer assay.
(§2) In the above table, all data are for RVP serotype-14 unless otherwise noted in parentheses. All strains of human rhinovirus (HRV) were purchased from American Type Culture Collection (ATCC) except for serotype 14, which was produced from the infectious cDNA clone constructed and supplied to Applicants by Dr. Robert Rueckert at the Institute for Molecular Virology, University of Wisconsin, Madison, Wis. The column designated INHIB represents the percent inhibition at 10 minute preincubation with 50 nM RVP prior to addition of substrate. The data in the column designated kobs/I was measured from progress curves in enzyme start experiments.

[3] = target: Recombinant Rhinovirus 3C protease serotype 2 (Human rhinovirus 2, UniProt P04936); settings: RVP serotype 2; enzyme start progress curves
Recombinant Rhinovirus 3C protease serotype 2, sequence (P04936 1508-1690): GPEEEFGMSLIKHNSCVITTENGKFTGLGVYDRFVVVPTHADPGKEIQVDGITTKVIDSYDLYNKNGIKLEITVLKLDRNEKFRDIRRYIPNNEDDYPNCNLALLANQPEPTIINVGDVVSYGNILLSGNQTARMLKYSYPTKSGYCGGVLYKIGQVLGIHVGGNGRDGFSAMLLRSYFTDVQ
Description: as §1, §2

HRV serotype-14 = test: Antirhinoviral HI-HeLa Cell Culture Assay (XTT cell protection), HRV-14; type: cell-based, human rhinovirus; settings: HRV serotype-14, HI-HeLa cells
Description: (§3) In the Cell Protection Assay, the ability of compounds to protect cells against HRV infection was measured by the XTT dye reduction method. This method is described in Weislow, O. S., Kiser, R., Fine, D. L., Bader, J., Shoemaker, R. H., Boyd, M. R., J. Natl. Cancer Inst. 1989, 81, 577-586, the disclosure of which is incorporated herein by reference.
(§4) Infected or mock-infected cells were suspended at 8×10^5 cells per mL and incubated with appropriate concentrations of compounds of formula I. Two days later, XTT/PMS was added to test plates, and the amount of formazan produced was quantified spectrophotometrically at 450/650 nm. […] The therapeutic index (TI) was calculated by dividing the CC50 by the EC50.
(§5) All strains of human rhinovirus (HRV) for use in this assay were purchased from American Type Culture Collection (ATCC) except for HRV serotype-14, which was produced from the infectious cDNA clone constructed and supplied to Applicants by Dr. Robert Rueckert at the Institute for Molecular Virology, University of Wisconsin, Madison, Wis. HRV stocks were propagated, and viral assays were performed in HI-HeLa cells (ATCC). Cells were grown in Minimal Essential Medium, available from Life Technologies, with 10% fetal bovine serum.
(§6) The compounds were tested against control compounds WIN 51711, WIN 52084, and WIN 54954, all obtained from Sterling-Winthrop Pharmaceuticals, and control compound Pirodavir, obtained from Janssen Pharmaceuticals. Antiviral data obtained for the test compounds are shown in Table 2 where all data are for HRV serotype-14 unless otherwise noted in parentheses.

HI-HeLa cells [4] = test: Cytotoxicity (CC50) in mock-infected HI-HeLa cells, antirhinoviral assay; type: cell-based
HRV serotype 2 = test: Antirhinoviral HI-HeLa Cell Culture Assay (XTT cell protection), HRV serotype 2; type: cell-based, human rhinovirus; settings: HRV serotype 2, HI-HeLa cells
Description: as §3, §4, §5, §6

HRV serotype 10 = test: Antirhinoviral HI-HeLa Cell Culture Assay (XTT cell protection), HRV serotype 10; type: cell-based, human rhinovirus; settings: HRV serotype 10, HI-HeLa cells
Description: as §3, §4, §5, §6

HRV serotype 89 = test: Antirhinoviral HI-HeLa Cell Culture Assay (XTT cell protection), HRV serotype 89; type: cell-based, human rhinovirus; settings: HRV serotype 89, HI-HeLa cells
Description: as §3, §4
(§7) All strains of human rhinovirus (HRV) for use in this assay were purchased from American Type Culture Collection (ATCC) except for HRV serotype-14, which was produced from the infectious cDNA clone constructed and supplied to Applicants by Dr. Robert Rueckert at the Institute for Molecular Virology, University of Wisconsin, Madison, Wis. HRV stocks were propagated, and viral assays were performed in HI-HeLa cells (ATCC). Cells were grown in Minimal Essential Medium, available from Life Technologies, with 10% fetal bovine serum. […]

HRV serotype 39 = test: Antirhinoviral HI-HeLa Cell Culture Assay (XTT cell protection), HRV serotype 39; type: cell-based, human rhinovirus; settings: HRV serotype 39, HI-HeLa cells
Description: as §3, §4, §7

HI-HeLa cells [5] = test: Cytotoxicity (CC50) in uninfected HI-HeLa cells, anticoxsackieviral assay; type: cell-based; settings: CVA-21 assay
Description: The Coxsackie strain A-21 (CVA-21) was purchased from American Type Culture Collection (ATCC). Virus stocks were propagated, and antiviral assays were performed in HI-HeLa cells (ATCC). Cells were grown in Minimal Essential Medium with 10% fetal bovine serum.
The ability of compounds to protect cells against CVA-21 infection was measured by the XTT dye reduction method. This method is described in Weislow, O. S., Kiser, R., Fine, D. L., Bader, I., Shoemaker, R. H., Boyd, M. R., J. Natl. Cancer Inst. 1989, 81, 577-586, the disclosure of which is incorporated herein by reference. HI-HeLa cells were infected with CVA-21 at a multiplicity of infection (m.o.i.) of 0.05 (CVA-21) or mock-infected with medium only. Infected or uninfected cells were resuspended at 4×10^4 cells per mL and incubated with appropriate concentrations of drug. One day later, XTT/PMS was added to test plates, and the amount of formazan produced was quantified spectrophotometrically at 450/650 nm. […] The therapeutic index (Th) was calculated by dividing the CC50 by the EC50.

HRV serotype 1A = test: Antirhinoviral HI-HeLa Cell Culture Assay (XTT cell protection), HRV serotype 1A; type: cell-based, human rhinovirus; settings: HI-HeLa cells
Description: as §3, §4, §5, §6

Molecule	pEC50 (HRV serotype-14)	CC50 (HI-HeLa cells [4]; line of HRV serotype-14)	pEC50 (HRV serotype 10)	CC50 (HI-HeLa cells [4]; line of HRV serotype 10)	CC50 (HI-HeLa cells [4]; line of HRV serotype 1A)	further results
CCOC(=O)/C=C/C(CCC(N)=O)NC(=O)C(CC(=O)C(CC(C)C)NC(=O)OCc1ccccc1)Cc1ccccc1 [Compound 1, Ethyl-3-(CBZ-L-LeuΨ[COCH2]-L-Phe-L-Gln)-E-Propenoate]	6.44	> 320 µM	–	–	–	kobs/I [1]: 17,380 M^−1sec^−1; kobs/I [2]: 3,880 M^−1sec^−1; kobs/I [3]: 2,242 M^−1sec^−1
CCOC(=O)/C=C/[C@H](CCC(N)=O)NC(=O)[C@@H](CC(=O)[C@H](CC(C)C)NC(=O)SCC)Cc1ccccc1 [Compound 2, Ethyl-3-(EtSCO-L-LeuΨ[COCH2]-L-Phe-L-Gln)-E-Propenoate]	6.62	> 320 µM	–	–	–	pEC50 (HRV serotype 2): 5.74; CC50 (HI-HeLa cells [4]; line of HRV serotype 2): > 320 µM
CC(C)CC(NC(=O)SCc1ccccc1)C(=O)CC(Cc1ccccc1)C(=O)NC(C=CC(=O)N1CCc2ccccc21)CCC(N)=O [Compound 3, (2,3-Dihydroindole)-3-(BnSCO-L-LeuΨ[COCH2]-L-Phe-L-Gln)-E-Propenamide]	–	–	–	–	–	pKi [1]: < 5.15
CCOC(=O)/C=C/[C@H](CCC(N)=O)NC(=O)[C@@H](CC(=O)[C@@H](NC(=O)SCC)C(C)C)Cc1ccccc1 [Compound 4, Ethyl-3-(EtSCO-L-ValΨ[COCH2]-L-Phe-L-Gln)-E-Propenoate]	7.00	> 320 µM	–	–	–	pEC50 (HRV serotype 2): 6.30; CC50 (HI-HeLa cells [4]; line of HRV serotype 2): > 320 µM
CCOC(=O)/C=C/C(CCC(N)=O)NC(=O)C(CC(=O)C(NC(=O)SCc1ccccc1)C(C)C)Cc1ccccc1 [Compound 5, Ethyl-3-(BnSCO-L-ValΨ[COCH2]-L-Phe-L-Gln)-E-Propenoate]	6.72	> 320 µM	–	–	–	–
CCOC(=O)/C=C/C(CCC(N)=O)NC(=O)C(CC(=O)C(CC(C)C)NC(=O)SCc1ccccc1)Cc1ccccc1 [Compound 6, Ethyl-3-(BnSCO-L-LeuΨ[COCH2]-L-Phe-L-Gln)-E-Propenoate]	6.17	> 100 µM	–	–	–	–
CCOC(=O)/C=C/C(CCC(N)=O)NC(=O)C(CC(=O)C(NC(=O)SC1CCCC1)C(C)C)Cc1ccccc1 [Compound 7, Ethyl-3-(CyPentylSCO-L-ValΨ[COCH2]-L-Phe-L-Gln)-E-Propenoate]	7.66	> 10 µM	7.46	> 10 µM	–	pEC50 (HRV serotype 2): 7.00; pEC50 (HRV serotype 89): 8.40; pEC50 (HRV serotype 39): 6.89; CC50 (HI-HeLa cells [4]; line of HRV serotype 2): > 10 µM; CC50 (HI-HeLa cells [4]; line of HRV serotype 39): > 10 µM; CC50 (HI-HeLa cells [4]; line of HRV serotype 89): > 10 µM; CC50 (HI-HeLa cells [5]): > 10 µM
CCOC(=O)/C=C/[C@H](CCC(N)=O)NC(=O)[C@@H](CC(=O)[C@H](CC(C)C)NC(=O)SC1CCCC1)Cc1ccccc1 [Compound 8, Ethyl-3-(CyPentylSCO-L-LeuΨ[COCH2]-L-Phe-L-Gln)-E-Propenoate]	6.72	> 100 µM	–	–	–	–
CCOC(=O)/C=C/[C@H](CCC(N)=O)NC(=O)[C@@H](CC(=O)[C@@H](NC(=O)SCC)C(C)C)Cc1ccc(C)cc1 [Compound 10, Ethyl-3-(EtSCO-L-ValΨ[COCH2]-L-(p-CH3)Phe-L-Gln)-E-Propenoate]	7.96	> 1 µM	–	–	–	pEC50 (HRV serotype 2): 6.74; CC50 (HI-HeLa cells [4]; line of HRV serotype 2): > 1 µM
CCOC(=O)C=CC(CCC(N)=O)NC(=O)C(CC(=O)C(NC(=O)SC(C)(C)C)C(C)C)Cc1ccc(F)cc1 (stereo not drawn) [Compound 26]	7.30	> 10 µM	6.26	> 10 µM	> 10 µM	–
CCOC(=O)C=CC(CCC(N)=O)NC(=O)C(CC(=O)C(NC(=O)C1SCCS1)C(C)C)Cc1ccc(F)cc1 (stereo not drawn) [Compound 27]	–	> 1 µM	5.48	> 1 µM	> 1 µM	–
CC(C)C(NC(=O)SC1CCCC1)C(=O)CC(Cc1ccc(F)cc1)C(=O)NC(C=CC(=O)OCc1cccnc1)CCC(N)=O (stereo not drawn) [Compound 28]	–	> 10 µM	6.00	> 10 µM	> 10 µM	pEC50 (HRV serotype 1A): 6.22
CC(C)C(NC(=O)C1SCCS1)C(=O)CC(Cc1ccc(F)cc1)C(=O)NC(C=CC(=O)OCc1cccnc1)CCC(N)=O (stereo not drawn) [Compound 30]	5.82	> 100 µM	–	–	–	kobs/I [1]: 292,000 M^−1sec^−1
CCOC(=O)C=CC(CCC(N)=O)NC(=O)C(CC(=O)C(NC(=O)C1SCCCS1)C(C)C)Cc1ccc(F)cc1 (stereo not drawn) [Compound 31]	–	> 3 µM	5.33	> 3 µM	> 3 µM	pEC50 (HRV serotype 1A): 5.20
CC(C)C(NC(=O)SC(C)(C)C)C(=O)CC(Cc1ccc(F)cc1)C(=O)NC(C=CC(=O)OCc1cccnc1)CCC(N)=O (stereo not drawn) [Compound 32]	6.40	> 32 µM	5.72	> 32 µM	> 32 µM	kobs/I [1]: 58,000 M^−1sec^−1; pEC50 (HRV serotype 1A): 5.66
CC(C)C(NC(=O)SC1CCCC1)C(=O)CC(Cc1ccc(F)cc1)C(=O)NC(C=CC(=O)OCCO)CCC(N)=O (stereo not drawn) [Compound 33]	6.29	> 32 µM	5.80	> 32 µM	> 32 µM	kobs/I [1]: 281,000 M^−1sec^−1; pEC50 (HRV serotype 1A): 5.77
CCOC(=O)C=CC(CCC(N)=O)NC(=O)C(CC(=O)C(NC(=O)c1cc(C)on1)C(C)C)Cc1ccc(F)cc1 (stereo not drawn) [Compound 34]	–	> 3 µM	6.40	> 3 µM	> 3 µM	pEC50 (HRV serotype 1A): 6.52
Cc1cc(CCCCCOc2c(Cl)cc(C3=NCCO3)cc2Cl)on1 [WIN 54954, reference compound]	–	–	–	–	–	CC50 (HI-HeLa cells [5]): > 100 µM
Ethyl-3-(CyPentylSCO-L-CyhexΨ[COCH2]-L-(p-F)Phe-L-Gln)-E-Propenoate [Compound 24]	7.49	–	–	–	–	–
